Experimental findings from US4303785A, “Antitumor anthracycline antibiotics” (priority 1978, dated 1981) are described below.

This experiment concerns L1210 cells. The experiment is described as follows: animal or person. In kind it is in vivo, CDF1 mice. The following applies: for response vs control in vivo at 0.15 mg/kg / response vs control in vivo at 0.31 mg/kg / response vs control in vivo at 0.625 mg/kg / response vs control in vivo at 1.25 mg/kg / response vs control in vivo at 2.5 mg/kg / response vs control in vivo at 5 mg/kg: Mus musculus, L1210, ip, 1080 h. How it is done:
D. Representative compounds of general formula I" were tested against experimental animal tumors as follows: […]
CDF1 mice were administered intraperitoneally (i.p.) with 1×10^5 cells/mouse of L1210 cells. After 24 hours had elapsed since inoculation, the mice were administered the test compounds intraperitoneally once daily for 10 consecutive days and observed for a 45 day period.
The antitumor activity was shown by the prolongation rate of survival day (T/C, %) to the survival day of control mice injected with physiological saline.

[1] abbreviates: 0.31 mg/kg/day i.p., once daily for 10 days.
The mark [2] stands for this setting: 0.625 mg/kg/day i.p., once daily for 10 days.
Where [3] appears, read: 1.25 mg/kg/day i.p., once daily for 10 days.
[4] abbreviates: 2.5 mg/kg/day i.p., once daily for 10 days.
The mark [5] stands for this setting: 5 mg/kg/day i.p., once daily for 10 days.
[6] abbreviates: read-out: Antitumor Activity (T/C, prolongation rate of survival day), 0.15 mg/kg/day i.p., once daily for 10 days.
Setting [7] is: read-out: Antitumor Activity (T/C, prolongation rate of survival day), 0.31 mg/kg/day i.p., once daily for 10 days.
The mark [8] stands for this setting: read-out: Antitumor Activity (T/C, prolongation rate of survival day), 0.625 mg/kg/day i.p., once daily for 10 days.
Setting [9] is: read-out: Antitumor Activity (T/C, prolongation rate of survival day), 1.25 mg/kg/day i.p., once daily for 10 days.
Setting [10] is: read-out: Antitumor Activity (T/C, prolongation rate of survival day), 2.5 mg/kg/day i.p., once daily for 10 days.
Setting [11] is: 0.15 mg/kg/day i.p., once daily for 10 days.
Where [12] appears, read: read-out: Antitumor Activity (T/C, prolongation rate of survival day), 5 mg/kg/day i.p., once daily for 10 days.

Like-named read-outs stand apart in the source and are kept apart here.

On to `COc1cccc2c1C(=O)c1c(O)c3c(c(O)c1C2=O)C[C@@](O)(C(=O)COC(C)=O)C[C@@H]3O[C@H]1C[C@H](N)[C@H](OC2CCCCO2)[C@H](C)O1` (single isomer, unassigned) [Example 1-b, 14-O-acetyl-4'-O-tetrahydropyranyl adriamycin b], for which the “Antitumor Activity (T/C, prolongation rate of survival day)” value (“Antitumor Activity” below) is, setting by setting: under setting [1], 145%; under setting [2], 184%; under setting [3], 220%; under setting [4], 218%; under setting [5], 241%.

Turning to `COc1cccc2c1C(=O)c1c(O)c3c(c(O)c1C2=O)C[C@@](O)(C(C)=O)C[C@@H]3O[C@H]1C[C@H](N)[C@H](OC2CCCC(OC)O2)[C@H](C)O1` (single isomer, unassigned) [Example 14-a, 4'-O-(6-methoxytetrahydropyranyl) daunomycin a], the “Antitumor Activity” value under setting [5] came to 232%. Further, under setting [6], the response vs control in vivo at 0.15 mg/kg was found to be 100%. The response vs control in vivo at 0.31 mg/kg under setting [7] worked out at 100%. The response vs control in vivo at 0.625 mg/kg under setting [8] stood at 100%. Further, under setting [9], the response vs control in vivo at 1.25 mg/kg stood at 106%. In addition, under setting [10], the response vs control in vivo at 2.5 mg/kg turned out to be 125%.

Take `COc1cccc2c1C(=O)c1c(O)c3c(c(O)c1C2=O)C[C@@](O)(C(C)=O)C[C@@H]3O[C@H]1C[C@H](N)[C@H](OC(C)OCC(C)C)[C@H](C)O1` (single isomer, unassigned) [Example 17-a, 4'-O-(1-isobutyloxyethyl) daunomycin a]: the “Antitumor Activity” value under setting [5] is listed as 156%. Besides, the response vs control in vivo at 0.15 mg/kg under setting [6] turned out to be 100%. For the same compound, the response vs control in vivo at 0.31 mg/kg under setting [7] came out at 100%. Besides, under setting [8], the response vs control in vivo at 0.625 mg/kg stood at 100%. Besides, the response vs control in vivo at 1.25 mg/kg under setting [9] worked out at 100%. Further, the response vs control in vivo at 2.5 mg/kg under setting [10] stood at 119%.

As to `COc1cccc2c1C(=O)c1c(O)c3c(c(O)c1C2=O)C[C@@](O)(C(=O)CO)C[C@@H]3O[C@H]1C[C@H](N)[C@H](OC2CCCO2)[C@H](C)O1` (single isomer, unassigned) [Example 5-a, 4'-O-tetrahydrofuranyl adriamycin a], the “Antitumor Activity” value is, setting by setting: under setting [11], 115%; under setting [1], 115%; under setting [2], 135%; under setting [3], 189%; under setting [4], 288%; under setting [5], 212%.

`COc1cccc2c1C(=O)c1c(O)c3c(c(O)c1C2=O)C[C@@](O)(C(=O)CO)C[C@@H]3O[C@H]1C[C@H](N)[C@H](OC(C)OCC(C)C)[C@H](C)O1` (single isomer, unassigned) [Example 9-a, 4'-O-(1-isobutyloxyethyl) adriamycin a]: the “Antitumor Activity” value under setting [5] is given as 257%. Also, the response vs control in vivo at 0.15 mg/kg under setting [6] was 105%. Moreover, the response vs control in vivo at 0.31 mg/kg under setting [7] is 105%. Further, the response vs control in vivo at 0.625 mg/kg under setting [8] was 112%. The response vs control in vivo at 1.25 mg/kg under setting [9] was 125%. In addition, the response vs control in vivo at 2.5 mg/kg under setting [10] worked out at 151%.

Regarding `CCOC(C)O[C@@H]1[C@H](C)O[C@@H](O[C@H]2C[C@](O)(C(C)=O)Cc3c(O)c4c(c(O)c32)C(=O)c2c(OC)cccc2C4=O)C[C@@H]1N` (single isomer, unassigned) [Example 16-a, 4'-O-(1-ethyloxyethyl) daunomycin a], the “Antitumor Activity” value runs as follows: under setting [4], 157%; under setting [5], 217%. Further, under setting [6], the response vs control in vivo at 0.15 mg/kg was 96%. For the same compound, under setting [7], the response vs control in vivo at 0.31 mg/kg was 96%. Further, the response vs control in vivo at 0.625 mg/kg under setting [8] is 104%. In addition, the response vs control in vivo at 1.25 mg/kg under setting [9] worked out at 102%.

Regarding `CCCCOC(C)O[C@@H]1[C@H](C)O[C@@H](O[C@H]2C[C@](O)(C(C)=O)Cc3c(O)c4c(c(O)c32)C(=O)c2c(OC)cccc2C4=O)C[C@@H]1N` (single isomer, unassigned) [Example 18-b, 4'-O-(1-butyloxyethyl) daunomycin b], the “Antitumor Activity” value is, setting by setting: under setting [11], 103%; under setting [1], 96%; under setting [2], 110%; under setting [3], 110%; under setting [4], 151%; under setting [5], 188%.

On to `COc1cccc2c1C(=O)c1c(O)c3c(c(O)c1C2=O)C[C@@](O)(C(C)=O)C[C@@H]3O[C@H]1C[C@H](N)[C@H](OC2CCCC(OC)O2)[C@H](C)O1` (single isomer, unassigned) [Example 14-b, 4'-O-(6-methoxytetrahydropyranyl) daunomycin b], for which the “Antitumor Activity” value is, setting by setting: under setting [11], 94%; under setting [1], 100%; under setting [2], 106%; under setting [3], 113%; under setting [4], 131%; under setting [5], 463%.

In the case of `COc1cccc2c1C(=O)c1c(O)c3c(c(O)c1C2=O)C[C@@](O)(C(C)=O)C[C@@H]3O[C@H]1C[C@H](N)[C@H](OC2CCCO2)[C@H](C)O1` (stereo partly shown) [Example 12, 4'-O-(tetrahydrofuranyl) daunomycin], the response vs control in vivo at 0.15 mg/kg (0.15 mg/kg/day i.p., once daily for 10 days, read-out: Antitumor Activity (T/C, prolongation rate of survival day)) came to 99%. Moreover, the response vs control in vivo at 0.31 mg/kg (0.31 mg/kg/day i.p., once daily for 10 days, read-out: Antitumor Activity (T/C, prolongation rate of survival day)) is 105%. The response vs control in vivo at 0.625 mg/kg (0.625 mg/kg/day i.p., once daily for 10 days, read-out: Antitumor Activity (T/C, prolongation rate of survival day)) worked out at 111%. Besides, the response vs control in vivo at 1.25 mg/kg (1.25 mg/kg/day i.p., once daily for 10 days, read-out: Antitumor Activity (T/C, prolongation rate of survival day)) is 111%. In addition, the response vs control in vivo at 2.5 mg/kg (2.5 mg/kg/day i.p., once daily for 10 days, read-out: Antitumor Activity (T/C, prolongation rate of survival day)) amounted to 160%. The response vs control in vivo at 5 mg/kg (5 mg/kg/day i.p., once daily for 10 days, read-out: Antitumor Activity (T/C, prolongation rate of survival day)) was determined as 346%.

Turning to `CCCCOC(C)O[C@@H]1[C@H](C)O[C@@H](O[C@H]2C[C@](O)(C(=O)CO)Cc3c(O)c4c(c(O)c32)C(=O)c2c(OC)cccc2C4=O)C[C@@H]1N` (single isomer, unassigned) [Example 8-a, 4'-O-(1-butyloxyethyl) adriamycin a], the “Antitumor Activity” value under setting [5] came to 163%. For the same compound, the response vs control in vivo at 0.15 mg/kg under setting [6] turned out to be 100%. In addition, the response vs control in vivo at 0.31 mg/kg under setting [7] stood at 100%. Moreover, under setting [8], the response vs control in vivo at 0.625 mg/kg was 119%. For the same compound, under setting [9], the response vs control in vivo at 1.25 mg/kg came out at 125%. Also, the response vs control in vivo at 2.5 mg/kg under setting [10] worked out at 138%.

As to `COc1cccc2c1C(=O)c1c(O)c3c(c(O)c1C2=O)C[C@@](O)(C(=O)COC(C)=O)C[C@@H]3O[C@H]1C[C@H](N)[C@H](OC2CCCCO2)[C@H](C)O1` (single isomer, unassigned) [Example 1-a, 14-O-acetyl-4'-O-tetrahydropyranyl adriamycin a], the “Antitumor Activity” value came to 203% under setting [1] and 239% under setting [4]. Besides, under setting [8], the response vs control in vivo at 0.625 mg/kg came to 195%. Further, under setting [9], the response vs control in vivo at 1.25 mg/kg came to 228%. Under setting [12], the response vs control in vivo at 5 mg/kg was found to be 225%.

Turning to `COc1cccc2c1C(=O)c1c(O)c3c(c(O)c1C2=O)C[C@@](O)(C(=O)CO)C[C@@H]3O[C@H]1C[C@H](N)[C@H](OC(C)OC2CCCCC2)[C@H](C)O1` (single isomer, unassigned) [Example 11-b, 4'-O-(1-cyclohexyloxyethyl) adriamycin b], the “Antitumor Activity” value under setting [11] is on record as 105%; the “Antitumor Activity” value under setting [1] is listed as 105%; the “Antitumor Activity” value under setting [2] came out at 105%; the “Antitumor Activity” value under setting [3] stood at 105%; the “Antitumor Activity” value under setting [4] was 125%; the “Antitumor Activity” value under setting [5] was found to be 145%.

Turning to `COc1cccc2c1C(=O)c1c(O)c3c(c(O)c1C2=O)C[C@@](O)(C(=O)CO)C[C@@H]3O[C@H]1C[C@H](N)[C@H](OC2CCCC(COC(C)=O)O2)[C@H](C)O1` (stereo partly shown) [Example 6, 4'-O-(6-acetoxymethyltetrahydropyranyl) adriamycin], the response vs control in vivo at 0.15 mg/kg under setting [6] was 100%. Also, under setting [7], the response vs control in vivo at 0.31 mg/kg was 88%. Also, under setting [8], the response vs control in vivo at 0.625 mg/kg came to 106%. In addition, the response vs control in vivo at 1.25 mg/kg under setting [9] worked out at 118%. Moreover, the response vs control in vivo at 2.5 mg/kg under setting [10] amounted to 118%. In addition, the response vs control in vivo at 5 mg/kg under setting [12] was 141%.
